Laboratory results from paper PMC9741287, “Cytotoxic and Luminescent Properties of Novel Organotin Complexes with Chelating Antioxidant Ligand” (Molecules, 2022).

Columns and labels:
[1] = system: formation of advanced glycation end products (AGEs); test: Antiglycation activity (BSA-glucose, AGE fluorescence); assay type: biochemical; conditions: for Antiglycation activity, M ± SEM: 24 h at 60 °C
Procedure: The glycation reaction was carried out in a phosphate buffer solution of 0.05 M, pH 7.4. Composition of the reaction medium: 0.36 M glucose solution and 1 mg/mL BSA (fraction V). The test compounds were dissolved in 99% DMSO (final concentration in the reaction medium ~3%). The activity of compound 1 was studied in the concentration range of 1000–0.1 μM, and the activity of aminoguanidine was determined at concentrations of 10,000–1000 μM. Control samples contained an equivalent volume of solvent. The samples were incubated for 24 h at 60 °C.
Data registration was carried out by the spectrofluorimetric method, determining AGE by specific fluorescence at excitation/emission wavelengths of 370/440 nm (spectrofluorimeter M 200 PRO, TECAN Austria GmbH, Grödig, Austria).
In order to exclude false positive results for compounds suppressing AGE fluorescence due to interference, the obtained data were logarithmically normalized according to Equation (4):Fly(log) = 10^(log10(Exp)−log10(Blank)) − 1(4) where Fly(log) is the normalized AGE fluorescence intensity, log10(Exp) and log10(blank) are the decimal logarithms of the actual fluorescence levels of glycated and corresponding non-glycated samples (both containing the test compound and controls).
The activity of other compounds (both non-fluorescent and fluorescent at the wavelengths used) was expressed by the Equation (5):Fly(lin) = Exp − Blank(5) where Fly(lin) is the fluorescence intensity of AGEs, Exp and blank are the actual fluorescence levels of glycated and corresponding non-glycated samples (both those containing the test compound and controls).
Determination of activity expressed as % suppression of fluorescence of AGE, was made according to the Equation (6):% = 100 − (Fly(Exp) × 100/Fly(Contr))(6) where Fly(Exp) and Fly(Contr) are the CPG fluorescence intensity of experimental and control samples, respectively (log-normalized or non-log-normalized).

[2] = system: MCF-7 (human breast cancer); test: MTT-test MCF-7; assay type: cell-based
Procedure: (§1) Since the investigated compounds are designed as theranostic and cytostatic agents, their toxic impact was evaluated as a standard MTT-test. Cytotoxicity was studied on four cell lines, i.e.,—HCT116 (human colorectal carcinoma), MCF-7 (human breast cancer), A549 (human lung adenocarcinoma), and WI-38 (human fetal lung fibroblast). Obtained results appear to be unorthodox: as it is known, the introduction of an organotin moiety tends to noticeably increase compounds’ toxicity and more lipophilic ones do it better, but in the presented data pattern turns vice versa (Table 3).
(§2) HCT-116 (colon carcinoma), MCF-7 (breast adenocarcinoma), A-549 (lung adenocarcinoma) cell lines, and WI-38 (cell line composed of fibroblasts) were derived from The European Collection of Authenticated Cell Cultures (ECACC, Salisbury, UK), cultured in DMEM medium (Gibco™, Dublin, Ireland) supplemented with 10% fetal bovine serum (Gibco™, Brasilia, Brazil). The cells were cultured in an incubator at 37 °C in a humidified 5% CO2 atmosphere and subcultured two times a week.
(§3) The toxicity of compounds was studied on cultured cell lines according to standard MTT protocol.

[3] = system: WI-38 (human fetal lung fibroblast); test: MTT-test WI-38; assay type: cell-based
Procedure: as §1, §2, §3

[4] = system: A549 (human lung adenocarcinoma); test: MTT-test A549; assay type: cell-based
Procedure: as §1, §2, §3

[5] = system: HCT116 (human colorectal carcinoma); test: MTT-test HCT116; assay type: cell-based
Procedure: as §1, §2, §3

| Structure (SMILES) | IC50 [1] [µM] | Antiglycation activity, M ± SEM ([1]; concentration 1000 µM) [%] | Antiglycation activity, M ± SEM ([1]; concentration 3000 µM) [%] | Antiglycation activity, M ± SEM ([1]; concentration 10,000 µM) [%] | IC50 [2] [µM] | IC50 [3] [µM] | IC50 [4] [µM] | IC50 [5] [µM] |
| --- | --- | --- | --- | --- | --- | --- | --- | --- |
| N=C(N)NN [Aminoguanidine, reference compound] | 5170 | 21.6 ± 1.8 | 39.5 ± 2.2 | 62.0 ± 2.0 |  |  |  |  |
| N.N.[Cl][Pt][Cl] [Cisplatin, reference compound] |  |  |  |  | 15.5 ± 3 | 16.3 ± 1.9 | 10.4 ± 1.5 | 8.3 ± 3.5 |
